IC50 data for 80 compounds are collected here from PubChem BioAssay AID602210 (Sanford-Burnham Center for Chemical Genomics, 2012).

Activity calls are given as the source filed them. The rule behind the calls is not given here. Bounds are passed on as bounds.

This test can be described thus: H9c2 cardiomyoblast viability modulators under 2-DG – cell-based, ATPlite luminescence, rat, set 2, myocardial damage modulator project, dose response (AID 602210). The note with it: H9c2 rat cardiomyoblasts, 2-deoxyglucose-induced death, 2 h. Background: ATP-based viability assays read luminescence as a measure of living cells.
In general, IC50 refers to the midpoint of a concentration-inhibition curve. For `O=C(CNC(=O)c1nc[nH]c1C(=O)NCc1ccccc1)OCc1ccccc1`, the IC50 is 5.21 µM.
As to `CC(=O)Nc1cccc(-c2cc(NC=O)c3ncc(-c4cccc(C(C)=O)c4)n3c2)c1`, the IC50 was 11 µM (inactive).
For `O=C(NC1CCCCC1)C(c1ccc2ncccc2c1)N(Cc1ccco1)C(=O)c1ccc2c(c1)OCCO2` (stereo not given) the value was 42.5 µM (inactive); for `CCOC(=O)C1CCN(c2cc3c(cc2NC(=O)c2ccccc2)n(C)c(=O)n3C)CC1`, 10 µM.
Take `COc1ccccc1CN(C)C(=O)c1cc(-c2cc(OC)c(OC)c(OC)c2)nc2ccccc12`: the IC50 was 10.4 µM (inactive).
For `CN(C)S(=O)(=O)c1ccc2[nH]cc(/C=C/c3nc4ccccc4c(=O)n3-c3ccccc3)c2c1` the value was 4.24 µM; for `Cc1cccc(NC(=O)c2nc[nH]c2C(=O)NCCCNC(=O)c2[nH]cnc2C(=O)Nc2cccc(C)c2)c1`, > 79 µM (inactive); for `COc1ccc(C=CC(=O)c2ccc3cc(OC)c(OC)cc3c2)cc1OC`, 11.7 µM (inactive).
Next, `O=C(CN1C(=O)C2CC=CCC2C1=O)Nc1nc(-c2ccc(F)cc2)cs1` (stereo not given): > 79 µM (inactive); `CCOc1ccccc1Nc1nnc(SCc2nnc(-c3cc(OC)c(OC)c(OC)c3)o2)s1`: 12.8 µM (inactive); `CCCC(=O)Nc1nc2ccc(NC(=O)c3ccc(Br)o3)cc2s1`: > 79 µM (inactive).
Next, `COc1cc(-c2nnc(-c3cc(-c4ccccc4)nc4ccccc34)o2)cc(OC)c1OC`: 7.22 µM; `COC(=O)c1cc2ccc(OC)cc2c2cc(OC)c(OC)cc12`: > 79 µM (inactive).
Take `COc1cc(OC)cc(-c2cc3nc(C)c(CCC(=O)Nc4nc(C)cs4)c(C)n3n2)c1`: the IC50 was 6.24 µM.
For `COc1ccc(/C=N/NC(=O)c2cc(-c3ccc4c(c3)OCO4)n[nH]2)cc1OC` the value was 9.02 µM; for `CCOC(=O)c1cc(-c2nnc(-c3cc(OC)c(OC)c(OC)c3)o2)c(C)nc1C`, 3.44 µM; for `COc1cc(/C=C(\C#N)c2nc3ccc(C)cc3[nH]2)c([N+](=O)[O-])cc1OC`, 26.4 µM (inactive).
For `CC(C)C(=O)N1CCN(c2ccc(NC(=O)COc3ccccc3[N+](=O)[O-])cc2)CC1` the value was 5.55 µM; for `CCOC(=O)N1CCc2c(sc(NC(=O)CN3CCOCC3)c2C(=O)Nc2ccccc2)C1`, > 79 µM (inactive).
For `O=c1[nH]c(CSc2nnc(-c3cccnc3)n2C2CCCCC2)nc2ccccc12`, the IC50 was > 79 µM (inactive).
Next, `Cc1ncc(CO)c2c1Oc1nc(-c3ccccc3)nc(SCC(=O)N3CCCCC3)c1C2`: > 79 µM (inactive); `Cn1c(=O)c2[nH]c(NN=Cc3cccc(Br)c3)nc2n(C)c1=O`: 7.47 µM.
For `COc1ccccc1-c1cc(NC=O)c2ncc(-c3cccc(C(C)=O)c3)n2c1`, the IC50 was > 79 µM (inactive).
As for `CC(C)(C)NC(=O)COC(=O)c1c2c(nc3ccccc13)CCC2`, the IC50 was 16.7 µM (inactive).
With `Cc1nc2c(c(=O)n1CCC1=CCCCC1)c1nc3ccccc3nc1n2/N=C/c1ccccc1`, the IC50 was 15.1 µM (inactive).
`CCOC(=O)C1=C(C)Nc2ccccc2N=C1NC(=O)c1oc2ccccc2c1COC`: the IC50 is 6.98 µM.
Next, `Cc1ccccc1N(C(=O)c1snc(C(N)=O)c1N)C(C(=O)NCc1ccccc1)c1ccc(O)cc1` (stereo not given): 18 µM (inactive).
For `CC(=O)c1ccc(-c2cnc3c(NC=O)cc(-c4cccc(C(=O)N(C)C)c4)cn23)cc1` the value was 12.2 µM (inactive).
Next, `COC(=O)c1cc2c(C)c(C)c3ccccn3c-2c1C(=O)OC`: 7.29 µM; `O=C(Nc1ccccc1)c1nc[nH]c1C(=O)NCCCCNC(=O)c1[nH]cnc1C(=O)Nc1ccccc1`: 4.11 µM; `COC(=O)c1ccccc1NC(=O)c1ccc2nccnc2c1`: 48.8 µM (inactive).
For the compound `C[C@H](NC(=O)c1nc[nH]c1C(=O)NCC(=O)OCc1ccccc1)C(=O)OCc1ccccc1`, the IC50 is 2.8 µM.
For `Cc1c(/C=N/NC(=O)c2ccc(O)cc2)c2ccccn2c1C(=O)c1ccc(F)cc1` the value was > 79 µM (inactive); for `CCn1nc(C(=O)Nc2nc(-c3ccccn3)cs2)c2ccccc2c1=O`, 6.65 µM; for `COc1cc2c(cc1OC)CN(c1nc(-c3cccnc3)nc3ccccc13)CC2`, 6.71 µM.
For `COC(=O)C1=C(C)N(CCc2ccc(OC)cc2)C(=O)C1` the value was 33.5 µM (inactive); for `O=C(CN1CCN(c2ccccn2)CC1)Nc1ccc([N+](=O)[O-])cc1C(=O)Nc1ccccc1F`, 12.8 µM (inactive); for `N#C/C(=C\c1cn(-c2ccccc2)nc1-c1cccnc1)c1nnc2n1CCCCC2`, 30.2 µM (inactive).
With `COc1cc(/C=N/n2nnnc2Nc2ccccc2)cc(OC)c1OC`, the IC50 is 38.1 µM (inactive).
For `CC(C)CCN(C(=O)CNC(=O)c1ccco1)C(C(=O)NC1CCCCC1)c1ccco1` (stereo not given) the value was > 79 µM (inactive).
For `O=C(CN1C(=O)C2C3C=CC(C3)C2C1=O)Nc1nc(-c2ccccn2)cs1` (stereo not given) the value was 24.7 µM (inactive).
Next, `COc1cccc(C(=O)CSc2nnc(-c3cc(OC)c(OC)c(OC)c3)o2)c1`: > 79 µM (inactive); `COc1ccc(CCn2c(=O)c3cccnc3n(Cc3ccc([N+](=O)[O-])cc3)c2=O)cc1OC`: 14.5 µM (inactive).
On to `CC(=O)NCc1ccc(-c2csc(NC(=O)CCc3nc4ccccc4c(=O)[nH]3)n2)s1`, for which the IC50 is 28.5 µM (inactive).
In the case of `Cc1ccc(S(=O)(=O)N2CCN(C(=O)c3cc(=O)[nH]c4ccccc34)CC2)c(C)c1`, the IC50 is 23 µM (inactive).
Next, `CCOC(=O)C1=C(COC(=O)c2cc(OC)c(OC)c(OC)c2)NC(=O)NC1C` (stereo not given): 42.8 µM (inactive); `O=C(NCCN1CCN(c2ccccc2F)CC1)c1cccn2c(=O)c3ccccc3nc12`: 11.7 µM (inactive); `CCOc1ccc2ccccc2c1C(=O)N[C@@H]1C(=O)N2[C@@H]1SC(C)(C)[C@@H]2C(=O)O`: 36.1 µM (inactive).
In the case of `O=C(COC(=O)c1ccccc1C(=O)OCC(=O)NCCc1c[nH]c2ccccc12)NCCc1c[nH]c2ccccc12`, the IC50 was 9.24 µM.
Next, `Cc1nn(-c2ccccc2)c(C)c1/C=N/NC(=O)c1cc(C(C)(C)C)[nH]n1`: 44.7 µM (inactive); `CCOC(=O)c1c2c3c(cccc3n(C)c1=O)C(=O)c1ccccc1-2`: 15.8 µM (inactive); `COc1cc(C(=O)Nc2cc3c(cc2N2CCCCC2)n(C)c(=O)n3C)cc(OC)c1OC`: 23.7 µM (inactive).
Next, `Cc1ccc(NC(=O)c2cc(=O)c3ccccc3o2)cc1S(=O)(=O)N1CCOCC1`: 29.6 µM (inactive); `CNC(=O)c1ccc(-c2sc3nc(N4CCOCC4)c4c(c3c2N)CCCC4)o1`: > 79 µM (inactive).
For `CCOc1cc(-c2cc(-c3ccc(N)cc3)nc(N)c2C#N)ccc1O` the value was 11.8 µM (inactive).
On to `NC(=O)c1nsc(C(=O)N(CCc2ccccc2)C(C(=O)NC2CCCC2)c2ccco2)c1N` (stereo not given), for which the IC50 was 25.8 µM (inactive).
As to `C[C@H](CO)N1C[C@H](C)[C@@H](CN(C)S(=O)(=O)c2ccccc2)Oc2ccc(NC(=O)Nc3ccccc3)cc2C1=O`, the IC50 is 36.2 µM (inactive).
For the compound `CCOC(=O)c1ccc(-c2ccc(/C=C(\C#N)C(=O)NCC3CCCO3)o2)cc1` (stereo not given), the IC50 is > 79 µM (inactive).
For `O=C(N/N=C/c1cn(-c2ccccc2)nc1-c1cccnc1)c1ccccc1` the value was > 79 µM (inactive); for `O=C(C[C@H]1C/C=C\CC[C@H](Cc2ccc(F)cc2)C(=O)O[C@H](c2ccccc2)CNC1=O)N[C@H](CO)Cc1ccccc1`, 7.55 µM.
Next, `C#CCOc1nc(Nc2cccc([N+](=O)[O-])c2)nc(OCC#C)n1`: 24.9 µM (inactive); `CCOC(=O)c1cc2c(=O)n3cccc(C)c3nc2n(CCCOC)c1=NC(=O)c1cccnc1`: 11.3 µM (inactive).
Next, `COc1cc(NC(=O)c2cc3nc(-c4ccccc4)cc(-c4ccccc4)n3n2)cc(OC)c1OC`: 7.15 µM; `CC(C)(C)OC(=O)N1CCC(NC(=O)c2nc[nH]c2C(=O)NCC(=O)OCc2ccccc2)CC1`: 4.3 µM.
`COc1cc2nc(C3CCC3)nc(N3CCN(c4ccccn4)CC3)c2cc1OC`: the IC50 is > 79 µM (inactive).
On to `COc1ccc(CC(=O)N(Cc2ccccc2)c2ccccc2)cc1S(=O)(=O)N1CCOCC1`, for which the IC50 is 8.92 µM.
For the compound `O=C(N/N=C/c1ccc2c(c1)OCO2)c1ccc(NC(=O)c2ccccc2Cl)cc1`, the IC50 was 14.8 µM (inactive).
Consider `COc1cc(NC(=O)c2ccco2)c(OC)cc1NC(=O)c1cc(OC)c(OC)c(OC)c1`, for which the IC50 was 7.97 µM.
Next, `COc1cc(-c2cc(NC(C)=O)c3ncc(-c4cc(OC)c(OC)c(OC)c4)n3c2)cc(OC)c1OC`: 9.01 µM.
Turning to `CCOC(=O)N1CCC(n2c(SCC(=O)N3CCC(C)CC3)nc3ccccc3c2=O)CC1`, the IC50 was 31.6 µM (inactive).
Next, `CC(=O)Nc1cc(-c2ccccc2)cn2c(-c3cccc(C(C)=O)c3)cnc12`: 16 µM (inactive); `COc1ccccc1NC(=O)c1cc(-c2cc(OC)c(OC)c(OC)c2)nc2ccccc12`: 8.68 µM; `O=C(NCCc1c[nH]c2ccccc12)C(=O)NCC(c1ccco1)N1CCN(c2ccccc2F)CC1` (stereo not given): > 79 µM (inactive).
Next, `O=C1NC(Cc2ccc(O)cc2)c2nc3ccc(F)cc3c(=O)n2-c2cc3ccccc3cc21` (stereo not given): 11.1 µM (inactive).
`O=C1OCCN1C(=O)[C@H]1[C@H](c2ccc([N+](=O)[O-])cc2)C(c2ccc(F)cc2)=NN1c1ccc(Br)cc1`: the IC50 is 8.93 µM.
For `CCOc1cc(/C=C(\C#N)C(=O)Nc2ccc(S(N)(=O)=O)cc2)ccc1OCCN1CCOCC1` the value was 9.62 µM; for `C[C@@H](NC(=O)c1nc[nH]c1C(=O)NCC(=O)OCc1ccccc1)c1ccccc1`, 9.89 µM; for `CCCCCCn1c(C)nc2c(c1=O)c1nc3ccccc3nc1n2/N=C/c1ccco1`, 11.2 µM (inactive).
Next, `CCC(Oc1ccccc1)C(=O)Nc1ccccc1C(=O)N1CCCCC1` (stereo not given): 36.4 µM (inactive).
Turning to `CCOc1ccc(C(C(=O)NC2CCCC2)N(C(=O)c2snc(C(N)=O)c2N)c2cccc(O)c2)cc1` (stereo not given), the IC50 is 6.74 µM.
